According to patent US7049322B2 (priority 2002, dated 2006):

Legend:
[1] = Moisture sorption/desorption (VTI SGA-100 moisture balance); type: physicochemical; details: for hygroscopicity: 5 to 95% RH
Excerpt: The samples were not dried prior to analysis.

[2] = XRPD after storage in a closed vial at ambient conditions; type: physicochemical; details: 31 days
Experimental: X-ray powder diffraction analyses were carried out on a Shimadzu XRD-6000 X-ray powder diffractometer using Cu Kα radiation having a wavelength of 1.5406 Å. The instrument is equipped with a fine-focus X-ray tube. The tube power was set by setting potential difference at 40 kV, and current 40 mA. The divergence and scattering slits were set at 1° and the receiving slit was set at 0.15 mm. Diffracted radiation was detected by a NaI scintillation detector. A theta-two theta continuous scan at 3°/min (0.4 sec/0.02° step) from 2.5 to 40 °2θ was performed. A silicon standard was analyzed each day to check the instrument alignment. Each sample was analyzed in a quartz sample holder. A variable temperature (VT-XRPD) experiment was performed on one form. The sample was prepared for analysis by pressing it into a variable temperature holder. A powder pattern was collected initially at 35° C. and again, after heating, at 200° C.

[3] = Dehydration/desolvation under vacuum, XRPD; type: physicochemical
Excerpt: The characterization of this weight loss as THF solvent is supported by the ^1H NMR data.

[4] = clinical trials, cited from earlier work

Compound: CC[C@@]1(O)C(=O)OCc2c1cc1n(c2=O)Cc2cc3c([N+](=O)[O-])cccc3nc2-1 [Form A, 9-nitrocamptothecin]
- water gained upon equilibration to 5% RH ([1]; 5% RH): 0.01%
- hygroscopicity [1]: not hygroscopic

Compound: CC[C@@]1(O)C(=O)OCc2c1cc1n(c2=O)Cc2cc3c([N+](=O)[O-])cccc3nc2-1 [Form B, 9-nitrocamptothecin]
- water lost upon equilibration at 5% RH ([1]; 5% RH): 0.98%
- hygroscopicity [1]: relatively hygroscopic
- stability of the crystalline polymorph (XRPD pattern unchanged) [2]: relatively stable

Compound: CC[C@@]1(O)C(=O)OCc2c1cc1n(c2=O)Cc2cc3c([N+](=O)[O-])cccc3nc2-1 [Form C, 9-nitrocamptothecin]
- form after attempted desolvation [3]: becomes amorphous

Compound: CC[C@@](O)(C(=O)[O-])c1cc2n(c(=O)c1CO)Cc1cc3ccccc3nc1-2.[Na+] [Sodium camptothecin]
- side effects ([4]; administered intravenously): unpredictable side effects such as myelosuppression and hemorrhagic cystitis
- antineoplastic activity ([4]; early 1970's): found to have antineoplastic activity
